These results are taken from patent US5190870A, “Method for oxidizing hydrocarbons with a hydroxylase from a methane monooxygenase” (Amoco Corporation, priority 1990, dated 1993).

By Km is commonly meant the substrate concentration at which the rate is half of its maximum.

Series [1] concerns the target T1, Methylosinus trichosporium OB3b soluble methane monooxygenase, complete system (hydroxylase, component B, reductase) (Methylosinus trichosporium, UniProt P27353).
T1 sequence (P27353 1-526): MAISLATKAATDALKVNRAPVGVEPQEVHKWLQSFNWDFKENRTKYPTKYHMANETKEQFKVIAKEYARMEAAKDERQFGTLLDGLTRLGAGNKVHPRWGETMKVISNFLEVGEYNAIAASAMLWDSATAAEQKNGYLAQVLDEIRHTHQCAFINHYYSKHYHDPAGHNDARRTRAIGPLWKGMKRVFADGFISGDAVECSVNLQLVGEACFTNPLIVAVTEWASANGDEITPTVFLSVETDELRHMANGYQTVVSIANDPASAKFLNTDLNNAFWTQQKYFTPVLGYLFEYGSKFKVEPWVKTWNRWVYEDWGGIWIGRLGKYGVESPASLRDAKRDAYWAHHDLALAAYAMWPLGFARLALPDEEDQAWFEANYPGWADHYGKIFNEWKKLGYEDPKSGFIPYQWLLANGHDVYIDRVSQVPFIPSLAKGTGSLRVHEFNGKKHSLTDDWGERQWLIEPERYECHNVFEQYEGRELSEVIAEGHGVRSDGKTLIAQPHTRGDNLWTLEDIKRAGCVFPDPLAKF
T1 sequence (P27354 1-394 partner): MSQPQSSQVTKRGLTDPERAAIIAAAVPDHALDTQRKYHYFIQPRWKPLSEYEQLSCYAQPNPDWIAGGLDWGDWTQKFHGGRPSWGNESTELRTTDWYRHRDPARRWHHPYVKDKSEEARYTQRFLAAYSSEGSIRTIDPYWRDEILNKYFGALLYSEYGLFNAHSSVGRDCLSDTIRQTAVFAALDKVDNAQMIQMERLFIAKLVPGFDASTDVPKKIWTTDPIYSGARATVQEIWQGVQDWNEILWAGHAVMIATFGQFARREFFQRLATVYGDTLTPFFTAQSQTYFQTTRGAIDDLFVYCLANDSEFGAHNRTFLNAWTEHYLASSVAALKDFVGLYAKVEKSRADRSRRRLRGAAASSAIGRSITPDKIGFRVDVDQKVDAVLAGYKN
T1 sequence (P27355 1-169 partner): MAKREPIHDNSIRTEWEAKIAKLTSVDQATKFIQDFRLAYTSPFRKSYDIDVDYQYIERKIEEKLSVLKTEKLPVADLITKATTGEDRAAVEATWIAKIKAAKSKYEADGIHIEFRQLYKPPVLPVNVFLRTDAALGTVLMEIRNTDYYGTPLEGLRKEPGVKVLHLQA
Nature of the series: Polarographic / gas chromatographic assay of the complete (reconstituted) methane monooxygenase. The following applies: catalytic cycles per second per molecule.

Substrate in series [2]: c1ccoc1
Nature of the series: purified protein, by the assay type. The following applies: other: complete methane monooxygenase, polarographic assay; pH 7.0; 30.0 °C.

Take `c1ccoc1` [furan]: the “turnover number relative to the hydroxylase” value in series [1] turned out to be 7.6 S^-1.

B1: Methylosinus trichosporium OB3b soluble methane monooxygenase, complete system (hydroxylase, component B, reductase) (Methylosinus trichosporium) (protein)
chain: MAISLATKAATDALKVNRAPVGVEPQEVHKWLQSFNWDFKENRTKYPTKYHMANETKEQFKVIAKEYARMEAAKDERQFGTLLDGLTRLGAGNKVHPRWGETMKVISNFLEVGEYNAIAASAMLWDSATAAEQKNGYLAQVLDEIRHTHQCAFINHYYSKHYHDPAGHNDARRTRAIGPLWKGMKRVFADGFISGDAVECSVNLQLVGEACFTNPLIVAVTEWASANGDEITPTVFLSVETDELRHMANGYQTVVSIANDPASAKFLNTDLNNAFWTQQKYFTPVLGYLFEYGSKFKVEPWVKTWNRWVYEDWGGIWIGRLGKYGVESPASLRDAKRDAYWAHHDLALAAYAMWPLGFARLALPDEEDQAWFEANYPGWADHYGKIFNEWKKLGYEDPKSGFIPYQWLLANGHDVYIDRVSQVPFIPSLAKGTGSLRVHEFNGKKHSLTDDWGERQWLIEPERYECHNVFEQYEGRELSEVIAEGHGVRSDGKTLIAQPHTRGDNLWTLEDIKRAGCVFPDPLAKF
Consider B1, for which the Michaelis constant (Km) in series [2] turned out to be 20 µM.
